Experimental data taken from ChEMBL document CHEMBL4364326, “Design, synthesis and biological evaluation of 2-(4-alkoxy-3-cyano)phenyl-6-oxo-1,6-dihydropyrimidine-5-carboxylic acid derivatives as novel xanthine oxidase inhibitors” (Eur J Med Chem, 2019).
pIC50: −log10 of the molar value. The source made the active and inactive calls. The rule behind the calls is not given here.

Assays:
[1] = target: T1, Xanthine dehydrogenase/oxidase (Bos taurus, UniProt P80457); assay: Inhibition of bovine xanthine oxidase assessed as reduction in uric acid formation using xanthine as substrate preincubated with enzyme for 15 mins followed by substrate addition and measured every 30 secs for 2 mins by spectrophotometric method
T1 sequence (P80457 whole entry): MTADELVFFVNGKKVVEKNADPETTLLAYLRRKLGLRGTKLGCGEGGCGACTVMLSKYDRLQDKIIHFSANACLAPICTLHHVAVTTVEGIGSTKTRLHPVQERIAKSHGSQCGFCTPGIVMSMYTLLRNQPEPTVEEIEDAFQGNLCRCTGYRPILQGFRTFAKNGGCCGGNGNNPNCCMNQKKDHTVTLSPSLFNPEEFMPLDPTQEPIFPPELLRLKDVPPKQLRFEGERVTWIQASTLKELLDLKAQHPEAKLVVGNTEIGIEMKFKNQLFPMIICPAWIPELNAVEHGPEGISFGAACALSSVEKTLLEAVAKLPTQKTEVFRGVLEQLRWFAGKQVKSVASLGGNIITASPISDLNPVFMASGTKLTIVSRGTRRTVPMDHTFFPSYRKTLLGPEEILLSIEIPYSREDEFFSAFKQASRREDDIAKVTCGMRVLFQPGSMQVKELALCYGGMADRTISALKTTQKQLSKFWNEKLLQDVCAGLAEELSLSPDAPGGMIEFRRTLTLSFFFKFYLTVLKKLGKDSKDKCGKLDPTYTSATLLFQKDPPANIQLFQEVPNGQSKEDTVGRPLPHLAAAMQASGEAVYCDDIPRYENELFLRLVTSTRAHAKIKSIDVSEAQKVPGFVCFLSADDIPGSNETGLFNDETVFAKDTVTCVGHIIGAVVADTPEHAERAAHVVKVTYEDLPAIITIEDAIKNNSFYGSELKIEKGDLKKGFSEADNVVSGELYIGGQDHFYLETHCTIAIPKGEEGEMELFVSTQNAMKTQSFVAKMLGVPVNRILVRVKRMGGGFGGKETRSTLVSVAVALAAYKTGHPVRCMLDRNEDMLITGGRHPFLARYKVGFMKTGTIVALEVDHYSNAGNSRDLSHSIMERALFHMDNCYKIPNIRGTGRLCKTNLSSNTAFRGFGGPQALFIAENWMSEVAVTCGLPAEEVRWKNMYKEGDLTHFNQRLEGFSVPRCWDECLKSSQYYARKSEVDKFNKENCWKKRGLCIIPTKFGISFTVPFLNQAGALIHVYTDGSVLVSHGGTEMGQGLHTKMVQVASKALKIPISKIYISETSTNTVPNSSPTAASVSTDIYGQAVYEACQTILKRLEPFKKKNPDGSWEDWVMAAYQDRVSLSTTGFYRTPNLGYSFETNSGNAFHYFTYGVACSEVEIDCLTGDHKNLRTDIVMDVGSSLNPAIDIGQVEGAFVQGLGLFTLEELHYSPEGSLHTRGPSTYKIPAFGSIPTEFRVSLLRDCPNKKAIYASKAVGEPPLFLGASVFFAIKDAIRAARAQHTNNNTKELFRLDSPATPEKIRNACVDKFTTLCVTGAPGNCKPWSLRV

Rattus norvegicus [2] = assay: Anti-hyperuricemic activity in potassium oxonate-induced acute hyperuricemia Sprague-Dawley rat model assessed as reduction in AUC of uric acid in serum at 10 mg/kg, ig pretreated for 1 hr followed by potassium oxonate challenge and measured at 2 hrs post drug administration (reference value: 23%); type: functional; settings: po
[3] = target: T1, Xanthine dehydrogenase/oxidase; assay: Potency index, Ratio of allopurinol IC50 to compound IC50 for bovine xanthine oxidase using xanthine as substrate by spectrophotometry; settings: cattle
Rattus norvegicus [4] = assay: Anti-hyperuricemic activity in potassium oxonate-induced acute hyperuricemia Sprague-Dawley rat model assessed as reduction in uric acid level in serum at 5 mg/kg, ig pretreated for 1 hr followed by potassium oxonate challenge and measured at 2 hrs post drug administration; type: functional, organism-based
Rattus norvegicus [5] = assay: Anti-hyperuricemic activity in potassium oxonate-induced acute hyperuricemia Sprague-Dawley rat model assessed as reduction in AUC of uric acid in serum at 5 mg/kg, ig pretreated for 1 hr followed by potassium oxonate challenge and measured at 2 hrs post drug administration (reference value: 23%); type: functional; settings: po
[6] = target: T1, Xanthine dehydrogenase/oxidase; assay: Mixed type inhibition of bovine xanthine oxidase assessed as increase in Km with decrease in Vmax of the enzyme using xanthine as substrate preincubated with enzyme for 15 mins followed by substrate addition and measured every 30 secs for 2 mins by Lineweaver-Burk plot analysis; settings: cattle
[7] = Acute oral toxicity in KM mouse measured for 24 hrs by OCED guideline method; settings: in vivo
[8] = Acute oral toxicity in KM mouse assessed as change in behavior at 2000 mg/kg measured for 24 hrs; type: organism-based; settings: in vivo

Row | pIC50 [1] | SMILES | also measured
1 | 7.09 | C=CCOc1ccc(-c2ncc(C(=O)O)c(=O)[nH]2)cc1C#N | –
2 | 6.80 | Cc1ccc(COc2ccc(-c3nc(C)c(C(=O)O)c(=O)[nH]3)cc2C#N)cc1 | –
3 | 7.60 | CC(C)CCOc1ccc(-c2ncc(C(=O)O)c(=O)[nH]2)cc1C#N | –
4 | 7.74 | C=C(C)COc1ccc(-c2ncc(C(=O)O)c(=N)[nH]2)cc1C#N | Ratio IC50 [3]: 419
5 | 7.04 | CC(C)Oc1ccc(-c2ncc(C(=O)O)c(=O)[nH]2)cc1C#N | –
6 | 7.30 | N#Cc1cc(-c2ncc(C(=O)O)c(=O)[nH]2)ccc1OCc1ccc(Cl)cc1 | –
7 | 6.27 | Cc1nc(-c2ccc(OCCC(C)C)c(C#N)c2)[nH]c(=O)c1C(=O)O | –
8 | 7.22 | CC(C)COc1ccc(-c2ncc(C(=O)O)c(=O)[nH]2)cc1C#N | –

Continued, molecule first:

Row | SMILES | pIC50 [1] | also measured
9 | Cc1ccc(COc2ccc(-c3ncc(C(=O)O)c(=O)[nH]3)cc2C#N)cc1 | 7.45 | –
10 | Cc1ccc(COc2ccc(-c3ncc(C(=O)O)c(=N)[nH]3)cc2C#N)cc1 | 7.47 | –
11 | Oc1ncnc2[nH]ncc12 [ALLOPURINOL] | – | inhibition in vivo at 10 mg/kg (Rattus norvegicus [2]): 38.7%
12 | CC(C)CCOc1ccc(-c2ncc(C(=O)O)c(=N)[nH]2)cc1C#N | – | inhibition (Rattus norvegicus [4]): Active; inhibition in vivo at 5 mg/kg (Rattus norvegicus [5]): 36.1%; inhibition (INH) [6]: Active; LD50 at 24 h [7]: > 2000 mg/kg; Activity [8]: Non-Toxic
13 | Cc1nc(-c2ccc(OCC(C)C)c(C#N)c2)sc1C(=O)O [FEBUXOSTAT] | – | inhibition in vivo at 5 mg/kg (Rattus norvegicus [5]): 50.8%
14 | N#Cc1cc(-c2ncc(C(=O)O)c(=O)[nH]2)ccc1OCc1ccccc1 | 7.41 | –
15 | Cc1nc(-c2ccc(OCc3ccc(Br)cc3)c(C#N)c2)[nH]c(=O)c1C(=O)O | 6.73 | –
16 | C=C(C)COc1ccc(-c2ncc(C(=O)O)c(=O)[nH]2)cc1C#N | 7.47 | –
17 | C=C(C)COc1ccc(-c2nc(C)c(C(=O)O)c(=O)[nH]2)cc1C#N | 6.25 | –
18 | N#Cc1cc(-c2ncc(C(=O)O)c(=O)[nH]2)ccc1OCc1ccc(F)cc1 | 7.42 | –
19 | N#Cc1cc(-c2ncc(C(=O)O)c(=N)[nH]2)ccc1OCc1ccc(Br)cc1 | 7.57 | –
20 | N#Cc1cc(-c2ncc(C(=O)O)c(=O)[nH]2)ccc1OCc1ccc(Br)cc1 | 7.53 | –
21 | CC(C)(C)c1ccc(COc2ccc(-c3ncc(C(=O)O)c(=O)[nH]3)cc2C#N)cc1 | 6.71 | –
22 | CC(C)=CCOc1ccc(-c2ncc(C(=O)O)c(=O)[nH]2)cc1C#N | 7.41 | –
